The results in this text go back to patent US6623741B1, “Methods and compositions for inhibition of membrane fusion-associated events including RSV transmission” (Trimeris, Inc., priority 2000, dated 2003).

Data set [1] has as its target T1, DP107-like domain of the RSV F1-protein (MF5.1 fusion protein) (Human respiratory syncytial virus A, UniProt P03420).
T1 construct: made in house
As to the kind of experiment: biochemical. It is filed as binding. As for the experimental part: (§1) After incubation and washing, unbound Fab-d is removed from the plates and bound Fab-d is quantitated. A no-inhibitor control should also be conducted.
(§2) Such an assay takes advantage of accepted radioligand and receptor binding principles. (See, for example, Yamamura, H. I. et al., 1985, “Neurotransmitter Receptor Binding”, 2nd ed., Raven Press, NY.) As above, M41Δ78 is immobilized onto a solid support such as a microtiter well. […] Specific binding to M41Δ78 is defined as the difference of the binding of the labeled DP178 preparation in the microtiter wells (totals) and the binding in identical wells containing, in addition, excess unlabeled DP178 (nonspecifics).
Specifically, the DNA sequence corresponding amino acid residues 142-302 of the RSV F1 protein was amplified by PCR and cloned into the Xmn I site of the expression vector pMal-p2 (New England Biolab) to give MF5.1. These amino acid residues correspond to the extracellular domain of the RSV F1 protein including its DP107 region but excluding the DP178 region.
Cell fusion assays were performed with each of the peptides as described in Section 17 above.

Data set [2] concerns HIV-1IIIB. The following applies: read-out: HIV-infectivity (IC90); HIV-1IIIB.
The subject of data set [3] is HIV-1IIIB. It is filed as cell-based. The following applies: HIV-1 induced membrane fusion; read-out: Cell Fusion (IC90). As for the experimental part:
Cell Fusion Assays For Anti-HIV Activity:
Cell fusion assays were performed as previously described (Matthews et al., 1987, Proc. Natl. Acad. Sci. USA 84: […]). CEM cells (7×10^4) were incubated with HIV-1IIIB chronically infected CEM cells (10^4) in 96-well flat-bottomed half-area plates (Costar) in 100 μl culture medium. Peptide and fusion proteins at various concentrations in 10 μl culture medium were incubated with the cell mixtures at 37° C. for 24 hours. Multinucleated syncytia were estimated with microscopic examination.

The nature of data set [4]: Cell proliferation and toxicity assay. It is filed as cell-based. The following applies: human, CEM cells. Here is the method: (§3) Cell proliferation and toxicity assay: Approximately 3.8×10^5 CEM cells for each peptide concentration were incubated for 3 days at 37° C. in T25 flasks. Peptides tested were DP178 (SEQ ID NO:15) and DP-116 (SEQ ID NO:1552), as described in FIG. 1. Peptides were synthesized as described, above, in Section 6.1. The concentrations of each peptide used were 0, 2.5, 10, and 40 μg/ml. Cell counts were taken at incubation times of 0, 24, 48, and 72 hours.
(§4) CEM cells were incubated in the presence of varying concentrations of DP178 (SEQ ID NO:15), and DP-116 (SEQ ID NO:1552), a peptide previously shown to be ineffective as an HIV inhibitor (Wild, C. et al., 1992, Proc. Natl. Acad. Sci. USA 89:10,537-10,541). Additionally, cells were incubated in the absence of either peptide.

In data set [5] the test system is HIV-1LAI. The conditions noted are these: FIG. 1 legend. As for the experimental part:
Cell Free Virus Infection Assay:
Synthetic peptides were incubated at 37° C. with either 247 TCID50 (for experiment depicted in FIG. 2), or 62 TCID50 (for experiment depicted in FIG. 3) units of HIV-1LAI virus or 25 TCID50 units of HIV-2^NIHZ and CEM CD4^+ cells at peptide concentrations of 0, 0.04, 0.4, 4.0, and 40 μg/ml for 7 days. The resulting reverse transcriptase (RT) activity in counts per minute was determined using the assay described, below, in Section 6.1.5. See, Reed, L. J. et al., 1938, Am. J. Hyg. 27: 493-497 for an explanation of TCID50 calculations.
Reverse Transcriptase Assay:
The micro-reverse transcriptase (RT) assay was adapted from Goff et al. (Goff, S. et al., 1981, J. Virol. 38:239-248) and Willey et al. (Willey, R. et al., 1988, J. Virol. 62:139-147). Supernatants from virus/cell cultures are adjusted to 1% Triton-X100. A 10 μl sample of supernatant was added to 50 μl of RT cocktail in a 96-well U-bottom microtitre plate and the samples incubated at 37° C. for 90 min. The RT cocktail contained 75 mM KCl, 2 mM dithiothreitol, 5 mM MgCl2, 5 μg/ml poly A (Pharmacia, cat. No. 27-4110-01), 0.25 units/ml oligo dT (Pharmacia, cat. No. 27-7858-01), 0.05% NP40, 50 mM Tris-HCl, pH 7.8, 0.5 μM non-radioactive dTTP, and 10 μCi/ml ^32P-dTTP (Amersham, cat. No. PB. 10167).
After the incubation period, 40 μl of reaction mixture was applied to a Schleicher and Schuell (S+S) NA45 membrane (or DE81 paper) saturated in 2×SSC buffer (0.3 M NaCl and […] sodium citrate) held in a S+S Minifold over one sheet of GB003 (S+S) filter paper, with partial vacuum applied. Each well of the minifold was washed four times with 200 μl 2×SSC, under full vacuum. The membrane was removed from the minifold and washed 2 more times in a pyrex dish with an excess of 2×SSC. Finally, the membrane was drained on absorbent paper, placed on Whatman #3 paper, covered with Saran wrap, and exposed to film overnight at −70° C.
DP178 (SEQ ID NO:15) was next tested for its ability to block CD-4^+ CEM cell infection by cell-free HIV-1 virus. […]

Data set [6] deals with CEM cells. Briefly: Cell proliferation and toxicity assay. It is filed as cell-based. Here is the method: as §3, §4
The target of data set [7] is T2, M41Δ178 fusion protein (DP107 domain of HIV gp41) (Human immunodeficiency virus type 1 group M subtype B, UniProt P03377).
T2 construct: made by cloning the DNA fragment corresponding to gp41 amino acids 540-642 into the Xmn I site of pMal-p2; made in house
T2 sequence (P03377 540-642, stated change not applied): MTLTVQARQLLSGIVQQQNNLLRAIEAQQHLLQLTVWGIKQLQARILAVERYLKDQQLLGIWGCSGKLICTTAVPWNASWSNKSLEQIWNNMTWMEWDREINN
Briefly: biochemical. It counts as binding, HIV-1. Here is the method: as §1, §2

“Also recorded” adds a separate entry of the source. Read-outs that look alike come from different tables or passages of the source.

T1 sequence (P03420 142-302): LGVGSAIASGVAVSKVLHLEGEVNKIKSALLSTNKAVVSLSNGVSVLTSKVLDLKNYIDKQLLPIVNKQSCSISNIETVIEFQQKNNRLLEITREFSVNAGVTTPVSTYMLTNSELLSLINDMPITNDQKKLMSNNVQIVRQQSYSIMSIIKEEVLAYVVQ

As for “Ac-VYPSDEFDASISQVNEKINQALAYIRKADELLHNV-NH2 [Peptide T1091]”, in data set [1], the “binding affinity relative to T112” value is recorded as “approximately ten-fold less”.

As a reminder, the IC90 is the point of the concentration-response curve where the effect stands at 90%. On to “Ac-NNLLRAIEAQQHLLQLTVWGIKQLQARILAVERYLKDQ-NH2 [DP107]”, for which the IC90 in data set [2] and in data set [3] was 1000 nM each time.

Usually viability stands for a read-out of living cells in per cent, often relative to untreated cells. A higher viability goes with less harm to the cells. On to “Ac-LQARILAVERYLKDQQQ-NH2 [DP-116, reference compound]”, for which the viability at 0 h, 2.5 µg/mL in data set [4] (2.5 μg/ml, 0 hours) turned out to be 98%. Besides, the viability at 24 h, 2.5 µg/mL in data set [4] (2.5 μg/ml, 24 hours) was 96%. Moreover, the viability at 48 h, 2.5 µg/mL in data set [4] (2.5 μg/ml, 48 hours) is 98%. Also, in data set [4] (2.5 μg/ml, 72 hours), the viability at 72 h, 2.5 µg/mL was 99%. In data set [4] (10 μg/ml, 0 hours), the viability at 0 h, 10 µg/mL turned out to be 98%. This substance showed a viability at 24 h, 10 µg/mL in data set [4] (10 μg/ml, 24 hours) of 95%. In addition, the viability at 48 h, 10 µg/mL in data set [4] (10 μg/ml, 48 hours) was determined as 93%. In data set [4] (10 μg/ml, 72 hours), this substance had a viability at 72 h, 10 µg/mL of 98%. The viability at 0 h, 40 µg/mL in data set [4] (40 μg/ml, 0 hours) was 98%. In addition, in data set [4] (40 μg/ml, 24 hours), the viability at 24 h, 40 µg/mL was determined as 95%. In data set [4] (40 μg/ml, 48 hours), this substance gave a viability at 48 h, 40 µg/mL of 98%. In data set [4] (40 μg/ml, 72 hours), this substance came in with a viability at 72 h, 40 µg/mL of 97%. For the same substance, the “inhibition of HIV-1 cell free virus infection (in words)” value in data set [5] is given as “negative for inhibition of HIV-1 infection”.

As usually defined, the Kd is the concentration at which binding is half-saturated. With enfuvirtide, the “% Viability” value worked out at 98% in data set [6] (2.5 μg/ml, 0 hours); 93% in data set [6] (2.5 μg/ml, 24 hours); 96% in data set [6] (2.5 μg/ml, 48 hours); 96% in data set [6] (2.5 μg/ml, 72 hours); 98% in data set [6] (10 μg/ml, 0 hours); 97% in data set [6] (10 μg/ml, 24 hours). Further, the “% Viability” value in data set [6] (10 μg/ml, 48 hours) was 98%; in data set [6] (10 μg/ml, 72 hours) it was 98%; in data set [6] (40 μg/ml, 0 hours) it was 98%; in data set [6] (40 μg/ml, 24 hours), 97%; in data set [6] (40 μg/ml, 48 hours), 95%; in data set [6] (40 μg/ml, 72 hours), 97%. Besides, in data set [6] (CEM cells, up to 40 μg/ml, 3 days), the “cytotoxic effects on cells in culture” value was “non-cytotoxic; also recorded: no cytotoxic effects”. The affinity in data set [7], expressed as Kd, was 10 nM.
